Results reported in ChEMBL document CHEMBL4265994, “Design, synthesis, cholinesterase inhibition and molecular modelling study of novel tacrine hybrids with carbohydrate derivatives” (Bioorg Med Chem, 2018).

How the values were obtained:
Acetylcholinesterase = biological target: T1, Acetylcholinesterase (Mus musculus, UniProt P21836); assay: Inhibition of AChE in Swiss Webster mouse cerebral homogenate using acetylthiocholine iodide as substrate preincubated for 10 mins followed substrate addition measured after 10 mins by Ellman's method
T1 sequence (P21836 whole entry): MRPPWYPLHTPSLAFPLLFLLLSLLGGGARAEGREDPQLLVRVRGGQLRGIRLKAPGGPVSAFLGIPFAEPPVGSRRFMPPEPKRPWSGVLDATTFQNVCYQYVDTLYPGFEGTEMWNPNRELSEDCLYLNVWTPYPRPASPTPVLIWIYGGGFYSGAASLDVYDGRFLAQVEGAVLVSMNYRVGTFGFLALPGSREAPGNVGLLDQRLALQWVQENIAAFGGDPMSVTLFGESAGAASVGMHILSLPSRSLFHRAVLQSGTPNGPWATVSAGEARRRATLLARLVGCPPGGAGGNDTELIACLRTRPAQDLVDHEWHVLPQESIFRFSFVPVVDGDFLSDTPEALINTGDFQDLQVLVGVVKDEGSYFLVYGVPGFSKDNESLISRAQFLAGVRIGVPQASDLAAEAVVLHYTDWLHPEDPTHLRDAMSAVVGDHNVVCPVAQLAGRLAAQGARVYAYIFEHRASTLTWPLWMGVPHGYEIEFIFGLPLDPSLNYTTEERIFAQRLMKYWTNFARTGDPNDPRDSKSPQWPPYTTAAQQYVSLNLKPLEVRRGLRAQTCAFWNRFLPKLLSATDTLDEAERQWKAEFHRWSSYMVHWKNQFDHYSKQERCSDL

Cholinesterase = Cholinesterase (Mus musculus, UniProt Q03311); assay: Inhibition of BuChE in Swiss Webster mouse whole blood serum using butyrylthiocholine iodide as substrate preincubated for 10 mins followed substrate addition measured after 10 mins by Ellman's method
Sequence of Cholinesterase (Q03311 whole entry): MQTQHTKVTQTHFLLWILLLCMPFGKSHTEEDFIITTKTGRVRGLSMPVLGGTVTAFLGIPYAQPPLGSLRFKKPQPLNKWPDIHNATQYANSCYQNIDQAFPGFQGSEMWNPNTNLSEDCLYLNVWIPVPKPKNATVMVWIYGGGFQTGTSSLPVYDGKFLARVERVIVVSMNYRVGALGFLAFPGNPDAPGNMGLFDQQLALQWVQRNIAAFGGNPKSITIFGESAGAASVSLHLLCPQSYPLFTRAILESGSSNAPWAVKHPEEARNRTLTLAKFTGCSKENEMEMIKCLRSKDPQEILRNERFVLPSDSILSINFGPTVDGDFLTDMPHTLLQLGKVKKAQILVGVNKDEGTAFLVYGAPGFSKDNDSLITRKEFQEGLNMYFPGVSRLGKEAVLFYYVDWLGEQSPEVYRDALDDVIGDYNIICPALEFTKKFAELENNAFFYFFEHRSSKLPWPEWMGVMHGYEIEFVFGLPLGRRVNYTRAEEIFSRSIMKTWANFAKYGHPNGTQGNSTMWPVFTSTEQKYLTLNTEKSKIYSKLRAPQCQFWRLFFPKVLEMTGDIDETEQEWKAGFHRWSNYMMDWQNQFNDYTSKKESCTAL

Structure (SMILES)	IC50 (Acetylcholinesterase)	IC50 (Cholinesterase)
c1ccc2c(NCCCCCCCNc3c4c(nc5ccccc35)CCCC4)c3c(nc2c1)CCCC3	1.9 nM	9.1 nM
CO[C@@H]1O[C@H](CNCCCCCCCCCNc2c3c(nc4ccccc24)CCCC3)[C@H]2OC(C)(C)O[C@@H]12	65.5 nM	64.3 nM
CC1(C)O[C@H]2O[C@H](CNCCCCCCCNc3c4c(nc5ccccc35)CCCC4)[C@H](O)[C@H]2O1	84.4 nM	11.7 nM
CC1(C)O[C@H]2O[C@H](CNCCCCCCCCCCNc3c4c(nc5ccccc35)CCCC4)[C@H](O)[C@H]2O1	2.2 nM	4.93 nM
CC1(C)O[C@H]2[C@@H](O1)[C@@H](CNCCCCCCCCCNc1c3c(nc4ccccc14)CCCC3)O[C@@H]1OC(C)(C)O[C@@H]12	7.6 nM	26.2 nM
CC1(C)O[C@H]2O[C@H](CNCCCCCCCCNc3c4c(nc5ccccc35)CCCC4)[C@H](O)[C@H]2O1	5.1 nM	25.8 nM
CC1(C)O[C@H]2O[C@H](CNCCCCCCNc3c4c(nc5ccccc35)CCCC4)[C@H](O)[C@H]2O1	8.7 nM	27.6 nM
CC1(C)O[C@H]2[C@@H](O1)[C@@H](CNCCCCCCCCNc1c3c(nc4ccccc14)CCCC3)O[C@@H]1OC(C)(C)O[C@@H]12	4.8 nM	36.7 nM
CO[C@@H]1O[C@H](CNCCCCCCCCNc2c3c(nc4ccccc24)CCCC3)[C@H]2OC(C)(C)O[C@@H]12	89.9 nM	36.9 nM
CC1(C)O[C@H]2O[C@H](CNCCCCCCCCCNc3c4c(nc5ccccc35)CCCC4)[C@H](O)[C@H]2O1	10.2 nM	30.8 nM
